Source: publication PMC8365601, “Terphenyl-Based Small-Molecule Inhibitors of Programmed Cell Death-1/Programmed Death-Ligand 1 Protein–Protein Interaction” (Journal of Medicinal Chemistry, 2021)

Assays:
murine PD-L1 = murine PD-L1 (Mus musculus, UniProt Q9EP73); assay: 1H NMR titration with murine PD-L1; assay type: binding; details: over-titration 1:10 protein:compound
Experimental: We additionally compared the spectra of the interaction of 8j with hPD-L1 (Figure 2B) and murine PD-L1 (mPD-L1) (Figure 2C). Only for human PD-L1, changes in NMR were observed upon addition of 8j to the protein.
(§1) NMR spectra were recorded in PBS pH 7.4 containing 10% (v/v) of D2O added to the samples to provide the lock signal. Water suppression was carried out using the WATERGATE sequence. All the spectra were recorded at 300 K using a Bruker AVANCE 600 MHz spectrometer with the cryo-platform. The spectra were recorded at the ligand/protein ratio of 1:1, unless stated otherwise. The samples were prepared by adding small amounts of a 50 mM ligand stock solution in DMSO to the protein solution (0.20 mL) of PD-L1 fragment at a concentration of 0.2 mM. Spectra were visualized using TopSpin 4.0.2.

[1] = test system: primary CD4+ and CD8+ T cells (PBMCs); assay: T-cell activation (TCA) assay, PBMCs with CHO/TCRAct/PD-L1 cells, flow cytometry; assay type: cell-based, human; details: 48 h; compounds 0.1, 0.5, 2.5 μM; mAbs 5 μg/mL
Experimental: A standard ICB assay relies on artificial Jurkat-ECs, which are surrogates of T-cells. To verify the potential of the compounds to reactivate the PD-L1-blocked primary T cells, a modified assay termed T-cell activation (TCA) was carried out.[32] In this assay, human primary peripheral blood mononuclear cells (PBMCs) are allowed to make contact with CHO/TCRAct/PD-L1 cells alone or in the presence of PD-1/PD-L1 blockers, and the activation of CD4^+ and CD8^+ T cell is monitored by flow cytometry.
Anticoagulant citrate dextrose-A-treated blood from healthy donors was purchased from the Regional Center of Blood Donation and Blood Therapy in Krakow, Poland. PBMCs were isolated from whole blood by density gradient centrifugation using Pancoll human separating solution (PAN-Biotech GmbH, Aidenbach, Germany). The separated cells were washed and resuspended in RPMI 1640 medium (Biowest) containing 10% FBS (Biowest). PBMCs were added at an amount of 3 × 10^5 to CHO, CHO/TCRAct, or CHO/TCRAct/PD-L1 cells preseeded on 24-well plates in the presence of either anti-PD-L1 mAbs (at the final concentration 5 μg/mL): durvalumab (Selleckchem), atezolizumab (Selleckchem), or avelumab (MedChemExpress) or tested compounds at the concentrations 0.1, 0.5, and 2.5 μM. Untreated cells were used as controls for antibody treatment, while DMSO-treated cells [0.1% (v/v)] were used as controls for compound treatment. The cells were incubated for 48 h (37 °C, 5% CO2) and then detached from the plates with TrypLe Select Enzyme (Thermo Fisher). PBMCs were stained for 20 min at room temperature with the antibodies: anti-CD4-FITC, anti-CD8-BV510, anti-CD69-APC, anti-CD25-PE, anti-HLA-DR-PerCP, and anti-PD1-PECy7 (Becton Dickinson Biosciences, BD). Following two washing steps, the cells were analyzed with a FACSCanto II cytometer. Data analysis was carried out with FlowJo software, followed by statistical significance calculations done with Origin Pro 2020 software (OriginLab). Statistical significance was analyzed with one-way analysis of variance (ANOVA), followed by the Fisher’s posthoc test: *p < 0.05, **p < 0.01, […].

human PD-L1 = biological target: T1, human PD-L1 (Homo sapiens, UniProt Q9NZQ7); assay: 1H NMR titration with human PD-L1; assay type: binding; details: molar ratio 1:1
T1 construct: pET-21b plasmid carrying the PD-L1 gene (amino acids 18–134); made in house; host or cells: Escherichia coli BL21
T1 sequence (Q9NZQ7 18-134): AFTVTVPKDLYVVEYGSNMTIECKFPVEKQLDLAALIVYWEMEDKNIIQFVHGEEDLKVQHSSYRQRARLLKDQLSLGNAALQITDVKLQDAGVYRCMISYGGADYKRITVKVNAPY
Experimental: as §1

Sequence of murine PD-L1 (Q9EP73 18-134 limits assumed): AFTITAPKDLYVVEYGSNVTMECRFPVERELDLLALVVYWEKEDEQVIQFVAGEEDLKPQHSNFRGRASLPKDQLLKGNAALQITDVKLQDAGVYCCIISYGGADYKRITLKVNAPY

Compound: COc1cc(-c2cccc(-c3ccc4c(c3)OCCO4)c2Cl)ccc1CNC(CO)(CO)CO [8j, 2-(((3′-(Benzo-1,4-dioxan-6-yl)-2′-chloro-3-methoxy-[1,1′-biphenyl]-4-yl)methyl)amino)-2-(hydroxymethyl)propane-1,3-diol]
- interaction with mPD-L1 by 1H NMR (murine PD-L1): no interaction was observed
- numbers of PD-1-positive T cells [1]: significant increase
- numbers of activated, CD25-positive and HLA-DR-positive T-cells [1]: increased
- change of hPD-L1 1H NMR spectrum on adding compound (human PD-L1): broadening of the hPD-L1 proton signals
